# Biological target: T1, Vasopressin V1a receptor (Homo sapiens, UniProt P37288)
# Assay: not given
# Details: not given
# T1 sequence (P37288 whole entry): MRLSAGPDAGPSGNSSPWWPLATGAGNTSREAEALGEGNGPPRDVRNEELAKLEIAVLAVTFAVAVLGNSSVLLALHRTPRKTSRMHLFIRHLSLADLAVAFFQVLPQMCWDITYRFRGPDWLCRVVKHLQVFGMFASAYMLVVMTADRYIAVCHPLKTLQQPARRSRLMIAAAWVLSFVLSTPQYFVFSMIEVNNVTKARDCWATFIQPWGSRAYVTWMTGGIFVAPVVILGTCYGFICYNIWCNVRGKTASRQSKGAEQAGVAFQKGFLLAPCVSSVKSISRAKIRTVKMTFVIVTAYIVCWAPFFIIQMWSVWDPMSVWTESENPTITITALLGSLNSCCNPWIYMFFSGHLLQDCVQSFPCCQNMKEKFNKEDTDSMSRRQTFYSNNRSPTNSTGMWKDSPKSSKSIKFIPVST
row,SMILES,Ki [nM]
1,Clc1ccc2c(c1)CC1(CCOC1)Cc1nnc([C@H]3CC[C@H](Oc4ccccn4)CC3)n1-2 (stereo not given in full),0.3
2,Clc1ccc2c(c1)CC1(CCCOC1)Cc1nnc([C@H]3CC[C@H](Oc4ccccn4)CC3)n1-2 (stereo not given in full),0.3

# Biological target: T1, Vasopressin V1a receptor
# Assay: not given
# Details: not given
# Remark: another data set of the same source
row,SMILES,IC50 [nM]
1,Clc1ccc2c(c1)CC1(Cc3nnc([C@H]4CC[C@H](Oc5ccccn5)CC4)n3-2)OCCCCO1,1.1
2,Clc1ccc2c(c1)CC1(CCOC1)Cc1nnc([C@H]3CC[C@H](Oc4ccccn4)CC3)n1-2 (stereo not given in full),1.3
3,Clc1ccc2c(c1)CC1(CCCOC1)Cc1nnc([C@H]3CC[C@H](Oc4ccccn4)CC3)n1-2 (stereo not given in full),23

# Biological target: Voltage-gated inwardly rectifying potassium channel KCNH2 (Homo sapiens, UniProt Q12809)
# Assay: not given
# Details: not given
# Sequence of Voltage-gated inwardly rectifying potassium channel KCNH2 (Q12809 whole entry): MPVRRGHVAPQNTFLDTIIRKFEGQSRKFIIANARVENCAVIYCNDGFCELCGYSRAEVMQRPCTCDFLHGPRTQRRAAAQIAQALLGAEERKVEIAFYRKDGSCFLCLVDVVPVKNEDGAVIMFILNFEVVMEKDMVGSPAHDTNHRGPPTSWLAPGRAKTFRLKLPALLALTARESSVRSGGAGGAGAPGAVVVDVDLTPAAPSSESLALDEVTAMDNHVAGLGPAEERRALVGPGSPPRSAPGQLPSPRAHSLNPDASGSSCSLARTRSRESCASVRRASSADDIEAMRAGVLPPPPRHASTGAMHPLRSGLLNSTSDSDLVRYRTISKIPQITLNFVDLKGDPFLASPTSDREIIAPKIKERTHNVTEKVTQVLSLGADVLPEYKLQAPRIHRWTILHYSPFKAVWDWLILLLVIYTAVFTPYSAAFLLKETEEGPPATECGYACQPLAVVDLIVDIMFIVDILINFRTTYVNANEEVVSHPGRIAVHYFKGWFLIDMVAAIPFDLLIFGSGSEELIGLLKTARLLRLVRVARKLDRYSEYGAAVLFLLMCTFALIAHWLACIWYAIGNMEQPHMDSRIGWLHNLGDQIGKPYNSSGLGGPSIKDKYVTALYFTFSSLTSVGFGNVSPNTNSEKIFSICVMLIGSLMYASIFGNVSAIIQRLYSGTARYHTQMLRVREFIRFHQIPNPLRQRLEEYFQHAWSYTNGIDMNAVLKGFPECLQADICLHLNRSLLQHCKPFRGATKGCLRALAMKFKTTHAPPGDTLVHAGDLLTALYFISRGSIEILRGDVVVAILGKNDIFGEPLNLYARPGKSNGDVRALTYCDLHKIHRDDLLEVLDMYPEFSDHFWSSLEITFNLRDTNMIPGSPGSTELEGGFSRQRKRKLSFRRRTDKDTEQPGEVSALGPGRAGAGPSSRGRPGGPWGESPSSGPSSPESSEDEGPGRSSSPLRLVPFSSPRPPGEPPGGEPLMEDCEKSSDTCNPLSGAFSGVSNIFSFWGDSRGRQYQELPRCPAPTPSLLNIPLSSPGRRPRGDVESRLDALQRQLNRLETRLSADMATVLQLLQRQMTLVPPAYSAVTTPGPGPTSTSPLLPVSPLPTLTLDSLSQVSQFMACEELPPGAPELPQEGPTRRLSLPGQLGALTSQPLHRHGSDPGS
row,SMILES,IC50 [nM]
1,O=C1Cc2cc(Cl)ccc2-n2c(nnc2[C@H]2CC[C@H](Oc3ccccn3)CC2)C1,> 30000

# Tested on: not given
# Assay: not given
# Details: human, microsomes, 1 µM
row,SMILES,CLH [mL/min/kg]
1,Clc1ccc2c(c1)CC1(Cc3nnc([C@H]4CC[C@H](Oc5ccccn5)CC4)n3-2)OCCCCO1,0.17
2,Clc1ccc2c(c1)CC1(CCOC1)Cc1nnc([C@H]3CC[C@H](Oc4ccccn4)CC3)n1-2 (stereo not given in full),0.026
3,O=C1Cc2cc(Cl)ccc2-n2c(nnc2[C@H]2CC[C@H](Oc3ccccn3)CC2)C1,0.124
4,Clc1ccc2c(c1)CC1(CCCOC1)Cc1nnc([C@H]3CC[C@H](Oc4ccccn4)CC3)n1-2 (stereo not given in full),0.256

# Tested on: not listed separately
# Assay: in vitro
# Details: Wistar, rat, microsomes
row,SMILES,microsomal CLint at 1 µM [µL/min/mg]
1,Clc1ccc2c(c1)CC1(Cc3nnc([C@H]4CC[C@H](Oc5ccccn5)CC4)n3-2)OCCCCO1,229
2,Clc1ccc2c(c1)CC1(CCOC1)Cc1nnc([C@H]3CC[C@H](Oc4ccccn4)CC3)n1-2 (stereo not given in full),42
3,O=C1Cc2cc(Cl)ccc2-n2c(nnc2[C@H]2CC[C@H](Oc3ccccn3)CC2)C1,43
4,Clc1ccc2c(c1)CC1(CCCOC1)Cc1nnc([C@H]3CC[C@H](Oc4ccccn4)CC3)n1-2 (stereo not given in full),267

# Tested on: not listed separately
# Assay: in vitro
# Details: NMRI, mouse, microsomes
row,SMILES,microsomal CLint at 1 µM [µL/min/mg]
1,Clc1ccc2c(c1)CC1(Cc3nnc([C@H]4CC[C@H](Oc5ccccn5)CC4)n3-2)OCCCCO1,211
2,O=C1Cc2cc(Cl)ccc2-n2c(nnc2[C@H]2CC[C@H](Oc3ccccn3)CC2)C1,36

# Tested on: not listed separately
# Assay: in vitro
# Details: CD-1, mouse, liver microsomes
row,SMILES,microsomal CLint at 1 µM [µL/min/mg]
1,Clc1ccc2c(c1)CC1(CCOC1)Cc1nnc([C@H]3CC[C@H](Oc4ccccn4)CC3)n1-2 (stereo not given in full),80
2,Clc1ccc2c(c1)CC1(CCCOC1)Cc1nnc([C@H]3CC[C@H](Oc4ccccn4)CC3)n1-2 (stereo not given in full),263

# Tested on: not listed separately
# Assay: animal or person
# Details: Mus musculus, NMRI, po, read-out: INH
row,SMILES,inhibition in vivo at 10 mg/kg [%]
1,O=C1Cc2cc(Cl)ccc2-n2c(nnc2[C@H]2CC[C@H](Oc3ccccn3)CC2)C1,70

# Tested on: not listed separately
# Assay: animal or person
# Details: Mus musculus, NMRI, po, read-out: INH
# Remark: another data set of the same source
row,SMILES,inhibition in vivo at 3 mg/kg [%]
1,O=C1Cc2cc(Cl)ccc2-n2c(nnc2[C@H]2CC[C@H](Oc3ccccn3)CC2)C1,58
